Laboratory results published in US20120003151A1, “METHOD FOR EARLY IMAGING OF ATHEROSCLEROSIS” (priority 2009, published 2012).

Columns and labels:
folate receptor [1] = biological target: T1, folate receptor (Mus musculus, UniProt Q05685)
Method: (§1) EC20-^99mTc was prepared as described (Leamon et al., Bioconjug Chem, 2002, 13(6): 1200-10; incorporated herein by reference). Vials containing lyophilized EC20 were heated at 100° C. for 5 min, after which two mL of a 925 MBq/mL solution of sodium pertechnetate (Cardinal Health) was added and the vial was heated for an additional 15 min. After dilution with the desired volume of saline, mice were injected i.p. with either 400 μL of imaging agent (18.5 MBq, ˜250 nmoles/Kg of EC20) or the same volume of imaging agent supplemented with 100-fold molar excess of free folic acid (to compete for unoccupied folate receptors). Unbound EC20-^99mTc was allowed to clear from the tissues for a period of four hours prior to imaging.
To analyze the accumulation of EC20-^99mTc in mouse aortas and heart tissues, mice were euthanized and thoracic aortas excised. Radioactivities were counted for 2 min using a gamma-counter (Packard). Results are reported as % ID/g tissue.
In order to assess whether EC20-^99mTc is in fact targeting these regions of enhanced atherosclerosis, thoracic aortas and hearts were dissected, and accumulation of EC20-^99mTc in the resected tissues was quantitated by gamma counting.

FR+ macrophages = assay: EC20-99mTc imaging after macrophage depletion with clodronate liposomes; type: in vivo; details: apoE-/- mice, 8 weeks Western diet, 4 mg clodronate/dose i.p. daily for 5 days
Method: PBS- and clodronate liposomes were synthesized as described (Buiting et al., J. Immunol. Methods, 1996, 192(1-2): 55-62; incorporated herein by reference). 86 mg egg phosphatidylcholine +8 mg cholesterol were dissolved in 1:1 chloroform:methanol. Solvent was evaporated using a rotoevaporator for 15 min, and the resulting film was rehydrated with PBS or a 0.6 M solution of clodronate (Sigma) in PBS for 2 hours. Resulting multi-lamellar vesicles were sonicated for 3 min and allowed to swell for 2 hours at 25° C. Liposomes were washed 3× with PBS by centrifugation at 100,000×g for 30 min and resuspended in 4 mL PBS. Liposomes were extruded 5× through both a 400 nm and 200 nm pore-size polycarbonate filter and stored at 4° C. until use. The resulting liposomes consisted of 7:1.3 molar ratio egg phosphatidylcholine:cholesterol, respectively. The efficiency of clodronate entrapment using this method was 7.8%.
For systemic elimination of macrophages, apoE−/− mice were fed a Western diet for a period of 8 weeks, after which 200 μL of PBS- or clodronate-liposomes (4 mg clodronate/dose) were injected i.p. daily for 5 days. After treatment, mice were injected i.p. with EC20-^99mTc and imaged, as described above.

folate receptor [2] = biological target: T1, folate receptor; assay: Radioimaging (gamma scintigraphy, ROI analysis) of EC20-99mTc in ApoE-/- mice; type: in vivo; parameters: from tissue; host or cells: atherosclerotic aortas / aorto-cardiac region of living apoE-/- mice (lesion macrophages)
Method: as §1

folate receptor [3] = biological target: T1, folate receptor; assay: Autoradiography and histology of aortas after EC20-99mTc injection; type: in vivo, mice; parameters: from tissue; host or cells: atherosclerotic aortas / aorto-cardiac region of living apoE-/- mice (lesion macrophages)
Method: In order to image areas of accumulation of EC20-^99mTc in atherosclerotic aortas, apoE−/− mice on a normal or Western diet were injected with EC20-^99mTc, euthanized, and thoracic aortas were excised. […] For cross sections, aortic roots and arches were cut and embedded in Tissue-Tek® O.C.T.™ mounting medium and frozen in liquid nitrogen. Serial sections were cut with a Leica CM1800 cryostat and placed on polylysine coated microscope slides (Thermo Scientific). Either whole aortas or aortic arch cross sections (40 μm) were exposed to a phosphor screen for 18 hours at 4° C. The phosphor screen was read using a Typhoon phosphorimager (GE Healthcare) at a resolution of 50 microns. Aortic tissue sections (10 m thick) adjacent to those used for autoradiography were also used for histology. H&E staining was performed to visualize lesion morphology. H&E staining of the sections was performed as follows.
The slides were fixed for 10 minutes in zinc-buffered formalin. The slides were washed with distilled water. The slides were immersed in Gills-3 hematoxylin for 5 minutes. The slides were rinsed in distilled water and dipped twice in acidic ethanol. The slides were rinsed for 30 seconds with distilled water and for 3 minutes in tap water. The slides were transferred to alcoholic Eosin Y for 20 seconds. The slides were rinsed with water and dehydrated in 2 changes of 95% ethanol, 2 changes of 100% ethanol, and 2 changes of xylenes (3 minutes per change). Coverslips were mounted using Permount™ mounting medium and allowed to dry overnight. Slides were visualized with a light microscope (4× objective). In some cases, the percentage of lumen occlusion was analyzed using ImageJ software (National Institutes of Health).
Staining with the macrophage-specific monoclonal antibody (Mac-3/CD107b; eBioscience Inc.) was performed as follows. Aortic arch sections were fixed with zinc-buffered formalin for 10 min, and endogenous biotin and peroxidase activity were blocked. Sections were incubated with anti-mouse CD107b antibody (1:50 dilution) for 1 h, and after washing, incubated with goat anti-rat biotinylated antibody (KPL Protein Research Products) at a 1:500 dilution for 30 min. After washing, streptavidin-HRP (BD Pharmingen) was added for an additional 30 min. Slides were developed with diaminobenzidine substrate (BD Pharmingen) according to manufacturer's instructions. Negative control consisted of slides developed in the absence of primary antibody. An Olympus BH-2 microscope coupled with a CCD camera was used to obtain light photomicrographs. […]

T1 sequence (Q05685 21-227): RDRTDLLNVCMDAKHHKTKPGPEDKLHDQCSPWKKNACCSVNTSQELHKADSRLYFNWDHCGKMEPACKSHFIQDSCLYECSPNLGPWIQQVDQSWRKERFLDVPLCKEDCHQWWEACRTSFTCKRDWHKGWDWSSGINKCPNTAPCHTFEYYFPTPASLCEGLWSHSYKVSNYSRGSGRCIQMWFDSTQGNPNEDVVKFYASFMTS

Nc1nc2ncc(CNc3ccc(C(=O)N[C@H](CCC(=O)NC[C@H](N)C(=O)N[C@@H](CC(=O)O)C(=O)N[C@@H](CS)C(=O)O)C(=O)O)cc3)nc2c(=O)[nH]1 [EC20-^99mTc, metal not drawn]
decrease of EC20-99mTc retention in the aortas by competition with excess folic acid (folate receptor [1]; apoE-/- mice on Western diet, compared to non-competed controls): 41% | accumulation in the aortas, higher on Western chow than normal diet (folate receptor [1]; apoE-/- mice, 25 weeks on diet, gamma counting): ~120% | EC20-99mTc uptake in hearts relative to aortas (folate receptor [1]; mouse, in vivo): threefold lower | reduction of EC20-99mTc uptake by clodronate-liposome treatment relative to PBS-containing liposomes (FR+ macrophages): 65% | signal intensity after pre-injection of 100-fold excess free folic acid (folate receptor [2]; apoE-/- mice on Western diet, 25 weeks, folic acid competition): reduced to near background levels | average increase in EC20-99mTc signal intensity in the aorto-cardiac region, Western diet compared to normal rodent chow (folate receptor [2]; apoE-/- mice, 25 weeks on diet, i.p., imaged after 4 h clearance): ~70% | radioactivity in the aortic root and arch with 100-fold greater dose of free folic acid (folate receptor [3]; apoE-/- mice on Western diet, autoradiography): significantly reduced | correspondence of areas of high macrophage content and lesion formation with loci of elevated 99mTc emission (folate receptor [3]; apoE-/- mice, 25 weeks Western chow, serial sections: H&E, Mac-3, autoradiography): invariably corresponded | uptake in the aortic root and arch by autoradiography, Western diet versus normal diet (folate receptor [3]; apoE-/- mice, whole aortas, phosphorimager): significantly greater uptake

Nc1nc2ncc(CNc3ccc(C(=O)N[C@H](CCC(=O)NC[C@H](N)C(=O)N[C@@H](CC(=O)O)C(=O)N[C@@H](CS)C(=O)O)C(=O)O)cc3)nc2c(=O)[nH]1 [EC20]
detectability of EC20 uptake in small, early, active atherosclerotic plaques (folate receptor [3]; ApoE-/- mice, Western Diet 0, 2, 12 or 26 weeks, H&E plaque size): detectable
